The target in this experiment is T1, P2X7 receptor (Homo sapiens, UniProt Q99572).
T1 construct: host or cells: THP-1 cells differentiated with LPS and IFN-γ
T1 sequence (Q99572 1-595): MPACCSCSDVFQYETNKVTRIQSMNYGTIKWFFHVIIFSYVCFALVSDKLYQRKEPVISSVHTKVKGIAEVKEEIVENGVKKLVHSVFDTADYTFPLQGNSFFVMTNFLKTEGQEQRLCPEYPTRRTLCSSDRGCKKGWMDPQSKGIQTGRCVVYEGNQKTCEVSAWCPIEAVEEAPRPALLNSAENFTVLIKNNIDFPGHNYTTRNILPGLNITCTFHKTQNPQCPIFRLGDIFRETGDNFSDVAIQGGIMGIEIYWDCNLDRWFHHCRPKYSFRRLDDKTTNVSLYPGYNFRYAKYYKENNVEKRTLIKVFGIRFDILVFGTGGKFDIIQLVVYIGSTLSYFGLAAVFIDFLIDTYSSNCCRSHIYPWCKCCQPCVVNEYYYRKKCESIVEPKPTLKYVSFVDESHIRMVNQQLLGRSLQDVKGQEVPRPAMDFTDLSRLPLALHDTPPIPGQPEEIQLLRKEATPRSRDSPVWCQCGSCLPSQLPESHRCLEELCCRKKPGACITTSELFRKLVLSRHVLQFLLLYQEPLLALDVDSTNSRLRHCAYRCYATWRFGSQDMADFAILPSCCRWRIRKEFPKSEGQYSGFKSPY
The experiment can be described thus: IL-1β release assay in differentiated THP-1 cells stimulated with BzATP (Example 9); % inhibition and IC50. It is filed as cell-based. As to conditions: THP-1 cells differentiated with LPS and IFN-γ, 30 min pretreatment, BzATP 250 uM, IL-1β by ELISA. The method, boiled down: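 Differentiated THP-1 cells pretreated 30 min with compound in RPMI before BzATP stimulation. Supernatant IL-1β measured by ELISA. Percent inhibition derived from background-adjusted IL-1β of treated versus untreated cells.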

Structures are written as SMILES.

Usually IC50 stands for the point on the concentration scale where inhibition reaches its midpoint.

For the compound `O=C(Cc1ccc(C(F)(F)F)cc1C(F)(F)F)Nc1cccc2c(=O)n(C(CO)CO)ccc12` [Compound 233], the IC50 turned out to be 391 nM.

As for `C[C@H](C(=O)Nc1cccc2c(=O)n([C@H](C)C(=O)NC3CC3)ccc12)c1ccc(Cl)cc1` [Compound 308, (R)-2-{5-[(S)-2-(4-Chloro-phenyl)-propionylamino]-1-oxo-1H-isoquinolin-2-yl}-N-cyclopropyl-propionamide], the IC50 turned out to be 302 nM. For `C[C@H](C(N)=O)n1ccc2c(NC(=O)Cc3ccc(F)c(C(F)(F)F)c3)cccc2c1=O` [Compound 304], the half-inhibitory concentration (IC50) is 5.84 nM.

With `C[C@H](CO)n1ccc2c(NC(=O)Cc3ccc(C(F)(F)F)cc3F)cccc2c1=O` [Compound 359], the IC50 is 43.1 nM.

On to `O=C(Cc1ccc(Cl)cc1C(F)(F)F)Nc1cccc2c(=O)n(CCO)ccc12` [Compound 229], for which the IC50 worked out at 187 nM. As for `O=C(CCc1ccccc1)Nc1cccc2c(=O)n(CCO)ccc12` [Compound 3], the figure is 272 nM; as for `C[C@H](C(N)=O)n1ccc2c(NC(=O)Cc3ccc(C(F)(F)F)cc3F)cccc2c1=O` [Compound 296], 17.9 nM; as for `C[C@H](C(N)=O)n1ccc2c(NC(=O)Cc3ccc(F)cc3F)cccc2c1=O` [Compound 293], 44.4 nM.

Regarding `O=C(Cc1ccc(C(F)(F)F)cc1)Nc1cccc2c(=O)n(CCO)ccc12` [Compound 7], the IC50 came out at 289 nM. For the compound `O=C(Cc1ccc(C(F)(F)F)cc1C(F)(F)F)Nc1cccc2c(=O)n(CCO)ccc12` [Compound 230], the half-maximal inhibitory concentration (IC50) came out at 161 nM. In the case of `CC(C)(CO)n1ccc2c(NC(=O)Cc3ccc(F)c(C(F)(F)F)c3)cccc2c1=O` [Compound 367], the IC50 is 106 nM. Consider `CNCCn1ccc2c(NC(=O)Cc3ccc(Cl)c(Cl)c3)cccc2c1=O` [Compound 234], for which the IC50 is 144 nM. As for `CC(C)(CO)n1ccc2c(NC(=O)Cc3ccc(F)c(Cl)c3)cccc2c1=O` [Compound 372], the figure is 421 nM; as for `NCC(CCl)Cn1ccc2c(NC(=O)Cc3ccc(Cl)c(Cl)c3)cccc2c1=O` (stereo not shown) [Compound 259], 208 nM; as for `O=C(Cc1ccc(Cl)c(Cl)c1)Nc1c(Cl)ccc2c(=O)n(CCO)ccc12` [Compound 248], over 1000 nM. For `NC(=O)[C@H](CO)n1ccc2c(NC(=O)Cc3ccc(Cl)c(C(F)(F)F)c3)cccc2c1=O` [Compound 250, (S)-2-{5-[2-(4-Chloro-3-trifluoromethyl-phenyl)-acetylamino]-1-oxo-1H-isoquinolin-2-yl}-3-hydroxy-propionamide], the IC50 was determined as 15.1 nM. Take `C[C@H](CO)n1ccc2c(NC(=O)Cc3ccc(C(F)(F)F)cc3)cccc2c1=O` [Compound 319]: the half-inhibitory concentration (IC50) amounted to 25.1 nM.

For the compound `CC(C(=O)Nc1cccc2c(=O)n([C@@H](C)C(N)=O)ccc12)c1cccc(C(F)(F)F)c1F` (stereo partly shown) [Compound 355], the concentration for half-maximal inhibition (IC50) came out at 36.9 nM. On to `C[C@@H](C(N)=O)n1ccc2c(NC(=O)Cc3ccc(Cl)cc3C(F)(F)F)cccc2c1=O` [Compound 237, (S)-2-{5-[2-(4-Chloro-2-trifluoromethyl-phenyl)-acetylamino]-1-oxo-1H-isoquinolin-2-yl}-propionamide], for which the half-maximal inhibitory concentration (IC50) is 6.27 nM. For `O=C(Nc1cccc2c(=O)n(CCO)ccc12)c1ccc(C(F)(F)F)cc1C(F)(F)F` [Compound 6], the half-inhibitory concentration (IC50) is 311 nM. `CC(C)C[C@H](CO)n1ccc2c(NC(=O)Cc3ccc(Cl)c(C(F)(F)F)c3)cccc2c1=O` [Compound 280]: the IC50 was 121 nM. The same measure for `O=C(Cc1cc(C(F)(F)F)ccc1Cl)Nc1cccc2c(=O)n(CCO)ccc12` [Compound 67]: over 1000 nM; for `O=C(Cc1ccc(F)cc1)Nc1cccc2c(=O)n(CCO)ccc12` [Compound 73]: 532 nM; for `C[C@H](C(N)=O)n1ccc2c(NC(=O)Cc3ccc(Cl)c(Cl)c3)cccc2c1=O` [Compound 239]: 4.05 nM. Consider `C[C@H](C(N)=O)n1ccc2c(NC(=O)Cc3ccc(Cl)cc3)cccc2c1=O` [Compound 256], for which the half-maximal inhibitory concentration (IC50) is 34.4 nM.

The record behind these values is patent US7816371B2, “Bicycloheteroaryl compounds as P2X7 modulators and uses thereof” (Renovis, Inc., priority 2006, dated 2010).
